The NIST ThermoML archive (doi:10.1016/j.fluid.2010.01.023)
Several values for one entry are separate records, joined by “and”; a condition that tells them apart may be missing. Identical values can stand only once.

Assay: xn = mol fraction of the nth substance listed
Settings: Fluid (supercritical or subcritical phases), quasistatic thermogram and barogram, x2 = 0.7393

N [ammonia] + O
Settings	thermal pressure coefficient
594.84 K, Mass density=120.03 kg/m3	91 kPa/K
594.84 K, Mass density=147.43 kg/m3	126 kPa/K
595.16 K, Mass density=376.89 kg/m3	205 kPa/K and 295 kPa/K
595.35 K, Mass density=147.43 kg/m3	124 kPa/K
595.35 K, Mass density=456.58 kg/m3	451 kPa/K
595.53 K, Mass density=342.18 kg/m3	199 kPa/K
595.61 K, Mass density=285.71 kg/m3	196 kPa/K
595.78 K, Mass density=309.95 kg/m3	200 kPa/K
595.78 K, Mass density=376.89 kg/m3	296 kPa/K
596.04 K, Mass density=160.07 kg/m3	183 kPa/K
596.04 K, Mass density=227.54 kg/m3	195 kPa/K
596.47 K, Mass density=308.35 kg/m3	205 kPa/K
596.73 K, Mass density=307.35 kg/m3	201 kPa/K
596.9 K, Mass density=271.09 kg/m3	199 kPa/K
597.08 K, Mass density=342.18 kg/m3	198 kPa/K
597.33 K, Mass density=160.07 kg/m3	151 kPa/K
597.33 K, Mass density=311.19 kg/m3	199 kPa/K
597.33 K, Mass density=376.89 kg/m3	306 kPa/K
597.35 K, Mass density=160.07 kg/m3	174 kPa/K and 147 kPa/K
597.42 K, Mass density=295.31 kg/m3	196 kPa/K
597.5 K, Mass density=188.05 kg/m3	187 kPa/K
597.56 K, Mass density=342.18 kg/m3	197 kPa/K and 261 kPa/K
597.59 K, Mass density=218.92 kg/m3	197 kPa/K
597.76 K, Mass density=292.97 kg/m3	199 kPa/K
598.19 K, Mass density=224.53 kg/m3	198 kPa/K
598.28 K, Mass density=376.89 kg/m3	311 kPa/K
598.33 K, Mass density=329 kg/m3	195 kPa/K and 249 kPa/K
598.36 K, Mass density=160.07 kg/m3	140 kPa/K
598.45 K, Mass density=320.33 kg/m3	197 kPa/K
598.54 K, Mass density=297.6 kg/m3	191 kPa/K
598.57 K, Mass density=301.94 kg/m3	199 kPa/K
598.63 K, Mass density=291.16 kg/m3	201 kPa/K
598.71 K, Mass density=297.6 kg/m3	192 kPa/K
598.96 K, Mass density=243.97 kg/m3	201 kPa/K
598.96 K, Mass density=320.33 kg/m3	192 kPa/K and 246 kPa/K
598.97 K, Mass density=376.89 kg/m3	311 kPa/K
599.05 K, Mass density=160.07 kg/m3	139 kPa/K
599.05 K, Mass density=299.79 kg/m3	192 kPa/K
599.05 K, Mass density=329 kg/m3	258 kPa/K
599.14 K, Mass density=160.07 kg/m3	137 kPa/K
599.22 K, Mass density=214.43 kg/m3	201 kPa/K
599.42 K, Mass density=312.91 kg/m3	192 kPa/K and 244 kPa/K
599.44 K, Mass density=320.33 kg/m3	250 kPa/K
599.52 K, Mass density=206.01 kg/m3	198 kPa/K
599.57 K, Mass density=311.19 kg/m3	193 kPa/K and 240 kPa/K
599.57 K, Mass density=456.58 kg/m3	456 kPa/K
599.67 K, Mass density=309.95 kg/m3	192 kPa/K and 236 kPa/K
599.78 K, Mass density=308.35 kg/m3	192 kPa/K and 234 kPa/K
599.89 K, Mass density=307.35 kg/m3	192 kPa/K and 231 kPa/K
599.91 K, Mass density=295.31 kg/m3	196 kPa/K
600.02 K, Mass density=305.44 kg/m3	192 kPa/K and 229 kPa/K
600.17 K, Mass density=195.99 kg/m3	195 kPa/K
600.17 K, Mass density=303.47 kg/m3	192 kPa/K and 229 kPa/K
600.29 K, Mass density=301.94 kg/m3	192 kPa/K and 228 kPa/K
600.48 K, Mass density=299.79 kg/m3	193 kPa/K and 226 kPa/K
600.59 K, Mass density=309.95 kg/m3	248 kPa/K
600.63 K, Mass density=297.6 kg/m3	193 kPa/K and 225 kPa/K
600.68 K, Mass density=230.31 kg/m3	200 kPa/K
600.77 K, Mass density=308.35 kg/m3	240 kPa/K
600.81 K, Mass density=295.31 kg/m3	193 kPa/K and 224 kPa/K
600.93 K, Mass density=292.97 kg/m3	194 kPa/K and 224 kPa/K
600.94 K, Mass density=260.02 kg/m3	193 kPa/K
600.94 K, Mass density=305.44 kg/m3	237 kPa/K
601.02 K, Mass density=291.16 kg/m3	192 kPa/K
601.02 K, Mass density=342.18 kg/m3	281 kPa/K
601.05 K, Mass density=291.16 kg/m3	193 kPa/K and 223 kPa/K
601.11 K, Mass density=320.33 kg/m3	257 kPa/K
601.16 K, Mass density=188.05 kg/m3	186 kPa/K and 168 kPa/K
601.19 K, Mass density=227.54 kg/m3	200 kPa/K
601.28 K, Mass density=214.43 kg/m3	203 kPa/K
601.28 K, Mass density=301.94 kg/m3	234 kPa/K
601.34 K, Mass density=285.71 kg/m3	196 kPa/K and 222 kPa/K
601.37 K, Mass density=206.01 kg/m3	199 kPa/K
601.37 K, Mass density=224.53 kg/m3	201 kPa/K
601.45 K, Mass density=297.6 kg/m3	225 kPa/K
601.45 K, Mass density=299.79 kg/m3	239 kPa/K
601.54 K, Mass density=295.31 kg/m3	238 kPa/K
601.71 K, Mass density=230.31 kg/m3	202 kPa/K
601.71 K, Mass density=376.89 kg/m3	327 kPa/K
601.75 K, Mass density=195.99 kg/m3	195 kPa/K and 181 kPa/K
602.05 K, Mass density=218.92 kg/m3	201 kPa/K
602.05 K, Mass density=271.09 kg/m3	197 kPa/K and 217 kPa/K
602.22 K, Mass density=312.91 kg/m3	261 kPa/K
602.26 K, Mass density=206.01 kg/m3	199 kPa/K and 188 kPa/K
602.31 K, Mass density=307.35 kg/m3	241 kPa/K
602.39 K, Mass density=376.89 kg/m3	320 kPa/K
602.45 K, Mass density=260.02 kg/m3	199 kPa/K and 215 kPa/K
602.65 K, Mass density=456.58 kg/m3	458 kPa/K
602.74 K, Mass density=214.43 kg/m3	202 kPa/K and 195 kPa/K
602.74 K, Mass density=342.18 kg/m3	286 kPa/K
602.85 K, Mass density=218.92 kg/m3	202 kPa/K and 198 kPa/K
602.91 K, Mass density=243.97 kg/m3	202 kPa/K and 208 kPa/K
602.96 K, Mass density=224.53 kg/m3	202 kPa/K and 200 kPa/K
602.96 K, Mass density=230.31 kg/m3	202 kPa/K and 204 kPa/K
602.97 K, Mass density=227.54 kg/m3	202 kPa/K and 203 kPa/K
603.08 K, Mass density=311.19 kg/m3	256 kPa/K
603.34 K, Mass density=206.01 kg/m3	182 kPa/K
603.76 K, Mass density=218.92 kg/m3	196 kPa/K
603.85 K, Mass density=214.43 kg/m3	191 kPa/K
603.85 K, Mass density=227.54 kg/m3	203 kPa/K
604.11 K, Mass density=224.53 kg/m3	200 kPa/K
604.11 K, Mass density=230.31 kg/m3	205 kPa/K
604.36 K, Mass density=243.97 kg/m3	210 kPa/K
605.39 K, Mass density=329 kg/m3	275 kPa/K
605.47 K, Mass density=147.43 kg/m3	120 kPa/K
606.58 K, Mass density=376.89 kg/m3	333 kPa/K
606.76 K, Mass density=195.99 kg/m3	172 kPa/K
607.78 K, Mass density=342.18 kg/m3	290 kPa/K
607.95 K, Mass density=376.89 kg/m3	332 kPa/K
608.04 K, Mass density=309.95 kg/m3	261 kPa/K
608.55 K, Mass density=160.07 kg/m3	131 kPa/K
609.42 K, Mass density=320.33 kg/m3	279 kPa/K
609.48 K, Mass density=195.99 kg/m3	168 kPa/K
609.71 K, Mass density=308.35 kg/m3	272 kPa/K
609.99 K, Mass density=295.31 kg/m3	250 kPa/K
610.25 K, Mass density=312.91 kg/m3	270 kPa/K
610.59 K, Mass density=311.19 kg/m3	265 kPa/K
610.85 K, Mass density=307.35 kg/m3	266 kPa/K
611.44 K, Mass density=299.79 kg/m3	257 kPa/K
611.55 K, Mass density=342.18 kg/m3	299 kPa/K
611.61 K, Mass density=230.31 kg/m3	209 kPa/K
611.61 K, Mass density=301.94 kg/m3	259 kPa/K
612.63 K, Mass density=376.89 kg/m3	342 kPa/K
615.35 K, Mass density=160.07 kg/m3	131 kPa/K
616.03 K, Mass density=311.19 kg/m3	277 kPa/K
616.12 K, Mass density=312.91 kg/m3	269 kPa/K
616.28 K, Mass density=309.95 kg/m3	261 kPa/K
616.37 K, Mass density=329 kg/m3	285 kPa/K
617.05 K, Mass density=299.79 kg/m3	260 kPa/K
618.4 K, Mass density=342.18 kg/m3	304 kPa/K
620.1 K, Mass density=297.6 kg/m3	260 kPa/K
624.91 K, Mass density=160.07 kg/m3	132 kPa/K
633.33 K, Mass density=160.07 kg/m3	134 kPa/K
